Assays:
[1] = target: T1, leukocyte-type 12-lipoxygenase (leukocyte-type 12-LOX), porcine (Sus scrofa, UniProt P16469); assay: RP-HPLC of HETE products after reduction; type: biochemical
T1 construct: gene ALOX15; partially purified from J774A.1 cells overexpressing the porcine enzyme
T1 sequence (P16469 1-663): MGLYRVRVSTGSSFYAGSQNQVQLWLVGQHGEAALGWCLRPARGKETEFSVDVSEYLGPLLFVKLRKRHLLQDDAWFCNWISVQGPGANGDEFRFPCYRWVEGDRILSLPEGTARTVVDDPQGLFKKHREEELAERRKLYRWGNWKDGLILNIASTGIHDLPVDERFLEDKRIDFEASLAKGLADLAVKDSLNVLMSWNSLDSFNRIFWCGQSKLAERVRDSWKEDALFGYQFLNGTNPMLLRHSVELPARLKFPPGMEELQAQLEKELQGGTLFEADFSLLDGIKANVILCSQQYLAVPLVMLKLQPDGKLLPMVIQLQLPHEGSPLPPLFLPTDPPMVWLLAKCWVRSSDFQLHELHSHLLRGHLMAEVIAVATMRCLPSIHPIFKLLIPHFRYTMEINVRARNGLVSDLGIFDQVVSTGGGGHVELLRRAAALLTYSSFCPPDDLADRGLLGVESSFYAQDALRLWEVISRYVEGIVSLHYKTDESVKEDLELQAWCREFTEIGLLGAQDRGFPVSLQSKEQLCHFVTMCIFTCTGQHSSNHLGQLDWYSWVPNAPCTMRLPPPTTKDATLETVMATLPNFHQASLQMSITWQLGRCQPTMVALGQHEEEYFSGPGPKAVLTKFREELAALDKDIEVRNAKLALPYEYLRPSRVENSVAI

[2] = target: T1, leukocyte-type 12-lipoxygenase (leukocyte-type 12-LOX), porcine; assay: RP-HPLC of HETE products ([…] nm) after reduction; type: biochemical; conditions: 25 μM arachidonic acid, 100 mM Tris-HCl pH 7.4, 30 °C, 5 min preincubation; partially purified enzyme

IC50 [1] [µM] | Structure (SMILES) | no inhibition [2]
1.7 | C/C(=C\CO[C@@H]1O[C@H](CO)[C@@H](OC(=O)/C=C/c2ccc(O)cc2)[C@H](O[C@@H]2O[C@@H](C)[C@H](O)[C@@H](O)[C@H]2O)[C@H]1O)C/C=C/C(C)(C)OO [compound 1, (2E,5E)-7-hydroperoxy-3,7-dimethyl-2,5-octadienyl-O-(α-L-rhamnopyranosyl)-(1″→3′)-(4′″-O-trans-p-coumaroyl)-β-D-glucopyranoside] | 
0.7 | C/C(=C\CO[C@@H]1O[C@H](CO)[C@@H](OC(=O)/C=C\c2ccc(O)cc2)[C@H](O[C@@H]2O[C@@H](C)[C@H](O)[C@@H](O)[C@H]2O)[C@H]1O)C/C=C/C(C)(C)OO [compound 2, (2E,5E)-7-hydroperoxy-3,7-dimethyl-2,5-octadienyl-O-(α-L-rhamnopyranosyl)-(1′′→3′)-(4′′′-O-cis-p-coumaroyl)-β-D-glucopyranoside] | 
 | O=C(O)/C=C/c1ccc(O)cc1 [p-coumaric acid] | showed no inhibition on leukocyte-type 12-LOX activity

From PMC6269904, “Two New Monoterpene Glycosides from Qing Shan Lu Shui Tea with Inhibitory Effects on Leukocyte-Type 12-Lipoxygenase Activity” (Molecules, 2013)
